Measured values published in patent publication US11912701B2, “Protein kinase inhibitors for promoting liver regeneration or reducing or preventing hepatocyte death” (HEPAREGENIX GMBH, priority 2018, dated 2024).
Read-outs that look alike come from different tables or passages of the source.

Tests used:
[1] = target: T1, MKK4 (Homo sapiens, UniProt P45985); experiment: KINOMEscan competition binding assay, MKK4; settings: residual percent of control binding (PoC) at 100 nM
T1 construct: S84/D399; host or cells: HEK-293
T1 sequence (P45985 84-399): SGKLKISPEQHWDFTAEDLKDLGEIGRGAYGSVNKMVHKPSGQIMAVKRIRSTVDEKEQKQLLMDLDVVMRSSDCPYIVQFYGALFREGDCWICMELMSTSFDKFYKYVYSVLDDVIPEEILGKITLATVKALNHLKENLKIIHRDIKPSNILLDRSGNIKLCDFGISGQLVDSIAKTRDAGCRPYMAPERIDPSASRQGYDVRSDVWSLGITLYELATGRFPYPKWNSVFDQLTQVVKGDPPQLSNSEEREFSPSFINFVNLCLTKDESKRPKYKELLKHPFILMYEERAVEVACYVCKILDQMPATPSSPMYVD
Procedure: (§1) The assay was performed by combining three components: DNA-tagged kinase; immobilized ligand; and a test compound. The ability of the test compound to compete with the immobilized ligand was measured via quantitative PCR of the DNA tag. The technology is described in detail in Fabian, M. A. et al. A small molecule-kinase interaction map for clinical kinase inhibitors. Nat. […] Nat.
(§2) For investigation of the affinity to MKK4, BRaf, MKK7 and JNK1, the kinases were produced in HEK-293 cells and subsequently tagged with DNA for qPCR detection. […] The liganded beads were blocked with excess biotin and washed with blocking buffer (SEABLOCK™ (Pierce), 1% BSA, 0.05% TWEEN®20, 1 mM DTT) to remove unbound ligand and to reduce nonspecific binding. […] All reactions were performed in polystyrene 96-well plates in a final volume of 0.135 mL. […] The kinase concentration in the eluates was measured by qPCR.
(§3) The test compounds were provided as 10 mM stock solutions. The test solutions at indicated final concentrations were prepared at DiscoverX.
Potency of representative examples against the protein kinases MKK4, BRaf, MKK7 and JNK1 expressed as residual percent of control binding (PoC), was determined at a concentration of 100 nM. The determined potencies are categorized as follows: […]

[2] = target: T2, BRaf (Homo sapiens, UniProt P15056); experiment: KINOMEscan competition binding assay, BRaf; settings: ratio PoC (off-target)/PoC (MKK4)
T2 construct: purchased ProQinase GmbH, Freiburg, Germany (33PanQinase Assay Service)
T2 sequence (P15056 whole entry, species assumed): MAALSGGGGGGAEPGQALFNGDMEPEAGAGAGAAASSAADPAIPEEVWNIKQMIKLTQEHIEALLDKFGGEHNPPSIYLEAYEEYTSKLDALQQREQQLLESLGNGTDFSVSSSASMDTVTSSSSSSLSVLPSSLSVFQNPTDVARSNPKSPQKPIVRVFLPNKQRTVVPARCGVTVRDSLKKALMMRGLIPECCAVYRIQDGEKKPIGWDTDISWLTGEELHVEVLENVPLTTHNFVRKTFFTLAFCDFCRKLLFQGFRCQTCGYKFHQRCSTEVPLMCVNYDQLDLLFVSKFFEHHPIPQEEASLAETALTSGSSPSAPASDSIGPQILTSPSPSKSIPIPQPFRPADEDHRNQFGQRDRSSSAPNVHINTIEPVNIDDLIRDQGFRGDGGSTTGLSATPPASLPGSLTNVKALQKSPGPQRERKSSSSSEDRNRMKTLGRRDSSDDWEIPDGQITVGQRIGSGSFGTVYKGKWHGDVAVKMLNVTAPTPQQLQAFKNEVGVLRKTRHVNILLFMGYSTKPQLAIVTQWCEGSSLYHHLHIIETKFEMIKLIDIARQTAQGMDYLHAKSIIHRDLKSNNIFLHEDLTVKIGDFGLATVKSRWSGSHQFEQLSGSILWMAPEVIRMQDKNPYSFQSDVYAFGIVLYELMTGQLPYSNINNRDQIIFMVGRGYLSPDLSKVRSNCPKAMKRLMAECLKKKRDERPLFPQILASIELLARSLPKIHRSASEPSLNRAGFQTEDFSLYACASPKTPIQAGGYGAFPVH
Procedure: as §1, §2, §3
(§4) Potency of representative examples against the protein kinases MKK4, BRaf, MKK7 and JNK1 expressed as residual percent of control binding (PoC), was determined at a concentration of 100 nM. The determined potencies are categorized as follows:
(§5) The binding selectivity of representative examples against the protein kinases BRaf, MKK7 and JNK1, altogether denominated as “off-targets” is determined by the ratios of PoC (off-target)/PoC (MKK4).

[3] = target: T3, MKK4 (Homo sapiens, UniProt P45985); experiment: 33PanQinase enzyme assay, MKK4; type: biochemical; settings: for remaining activity at 0.1 µM: read-out: Potency MKK4 (residual activity, assay at single concentration)
T3 construct: purchased ProQinase GmbH, Freiburg, Germany (33PanQinase Assay Service)
T3 sequence (P45985 1-399): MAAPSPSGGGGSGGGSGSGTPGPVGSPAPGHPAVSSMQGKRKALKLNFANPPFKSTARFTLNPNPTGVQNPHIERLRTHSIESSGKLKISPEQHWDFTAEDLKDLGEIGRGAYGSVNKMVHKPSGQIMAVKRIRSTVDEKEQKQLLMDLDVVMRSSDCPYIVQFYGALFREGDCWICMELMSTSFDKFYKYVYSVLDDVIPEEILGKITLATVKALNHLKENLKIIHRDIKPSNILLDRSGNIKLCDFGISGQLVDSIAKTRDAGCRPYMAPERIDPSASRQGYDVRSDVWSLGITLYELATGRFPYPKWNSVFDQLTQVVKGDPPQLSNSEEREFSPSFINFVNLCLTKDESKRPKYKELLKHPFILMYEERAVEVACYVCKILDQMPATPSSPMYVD
How it was run: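 Radiometric 33PanQinase assay: kinase, substrate, ATP and compound in standard buffer, 60 min at 30 °C; 33Pi incorporation read by scintillation counting.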

[4] = target: T4, MKK7 (Homo sapiens, UniProt O14733); experiment: KINOMEscan competition binding assay, MKK7; design: M1/R419; host or cells: HEK-293; settings: ratio PoC (off-target)/PoC (MKK4)
T4 sequence (O14733 1-419): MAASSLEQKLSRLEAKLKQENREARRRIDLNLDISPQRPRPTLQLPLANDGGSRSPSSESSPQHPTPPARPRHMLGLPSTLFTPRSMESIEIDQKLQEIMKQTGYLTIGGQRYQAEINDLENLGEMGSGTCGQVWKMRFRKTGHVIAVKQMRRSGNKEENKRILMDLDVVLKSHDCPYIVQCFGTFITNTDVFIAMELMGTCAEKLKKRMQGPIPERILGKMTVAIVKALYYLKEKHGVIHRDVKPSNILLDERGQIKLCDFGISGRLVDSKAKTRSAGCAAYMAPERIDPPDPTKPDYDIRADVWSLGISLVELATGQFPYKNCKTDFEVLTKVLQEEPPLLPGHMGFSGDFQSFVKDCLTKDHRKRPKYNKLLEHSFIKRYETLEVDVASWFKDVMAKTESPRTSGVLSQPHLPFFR
Procedure: as §1, §2, §3, §4, §5

[5] = target: JNK1 (Homo sapiens, UniProt P45983); experiment: KINOMEscan competition binding assay, JNK1; design: M1/Q384; host or cells: HEK-293; settings: ratio PoC (off-target)/PoC (MKK4)
JNK1, sequence (P45983 1-384 isoform P45983-2): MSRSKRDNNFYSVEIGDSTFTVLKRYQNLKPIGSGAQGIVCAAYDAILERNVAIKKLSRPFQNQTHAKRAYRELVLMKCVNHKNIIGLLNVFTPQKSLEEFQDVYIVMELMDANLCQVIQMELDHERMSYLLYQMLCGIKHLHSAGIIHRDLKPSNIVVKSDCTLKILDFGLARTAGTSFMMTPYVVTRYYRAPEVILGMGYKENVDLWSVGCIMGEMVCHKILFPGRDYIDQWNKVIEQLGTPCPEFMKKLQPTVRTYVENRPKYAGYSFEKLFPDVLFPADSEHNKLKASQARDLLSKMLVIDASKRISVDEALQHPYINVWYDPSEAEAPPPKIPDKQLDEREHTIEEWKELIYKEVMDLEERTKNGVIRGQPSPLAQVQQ
Procedure: as §1, §2, §3, §4, §5

Row | SMILES | MKK4 [% Ctrl @ 100 nM [1] | selectivity based on % Ctrl @100 nM vs. Braf [2] | remaining activity at 0.1 µM ([3]; single concentration 100 nM) [%] | selectivity based on % Ctrl @100 nM vs. MKK7 [4] | selectivity based on % Ctrl @100 nM vs. JNK1 [5] | remaining activity at 0.1 µM [3] [%] | IC50 ([3]; assay 'IC50', read-out: Potency MKK4 (IC50)) [µM]
1 | CCCS(=O)(=O)Nc1ccc(Br)c(C(=O)c2c[nH]c3ncc(-c4ccc(Cl)cc4)cc23)c1Br [Example 2b, N-(2,4-dibromo-3-(5-(4-chlorophenyl)-1H-pyrrolo[2,3-b]pyridine-3-carbonyl)phenyl)propane-1-sulfonamide] | ◯ (30 ≤ PoC) | ◯ (3 ≥ Ratio) | 70 to 90 | ◯ (3 ≥ Ratio) | ◯ (3 ≥ Ratio) |  | 
2 | CCCS(=O)(=O)Nc1ccc(F)c(C(=O)c2c[nH]c3ncc(-c4cccc(Cl)c4)cc23)c1F [Example 32, N-(3-(5-(3-chlorophenyl)-1H-pyrrolo[2,3-b]pyridine-3-carbonyl)-2,4-difluorophenyl)propane-1-sulfonamide] | + (3 ≤ PoC < 30) | ◯ (3 ≥ Ratio) | 70 to 90 | + (10 ≥ ratio > 3) | + (10 ≥ ratio > 3) |  | 
3 | O=C(c1c(F)ccc(NS(=O)(=O)Cc2ccccc2)c1F)c1c[nH]c2ncc(-c3ccc(OCC(O)CO)cc3Cl)cc12 (stereo not shown) [Example 41, N-(3-(5-(2-chloro-4-(2,3-dihydroxypropoxy)phenyl)-1H-pyrrolo[2,3-b]pyridine-3-carbonyl)-2,4-difluorophenyl)-1-phenylmethane-sulfonamide] | ++ (1 ≤ PoC < 3) | ++ (100 ≥ ratio > 10) | 70 to 90 | ++ (100 ≥ ratio > 10) | ++ (100 ≥ ratio > 10) |  | 
4 | CCCS(=O)(=O)Nc1ccc(C#N)c(C(=O)c2c[nH]c3ncc(-c4ccc(Cl)cc4)cc23)c1C#N [Example 62, N-(3-(5-(4-chlorophenyl)-1H-pyrrolo[2,3-b]pyridine-3-carbonyl)-2,4-dicyanophenyl)propane-1-sulfonamide] | ◯ (30 ≤ PoC) | ◯ (3 ≥ Ratio) | > 90 | ◯ (3 ≥ Ratio) | ◯ (3 ≥ Ratio) |  | 
5 | CCCS(=O)(=O)Nc1ccc(F)c(C(=O)c2c[nH]c3ncc(-c4ccc5ccsc5c4)cc23)c1F [Example 51] | + (3 ≤ PoC < 30) | ◯ (3 ≥ Ratio) | 70 to 90 | + (10 ≥ ratio > 3) | ◯ (3 ≥ Ratio) |  | 
6 | O=C(c1c(F)ccc(NS(=O)(=O)Cc2ccccc2)c1F)c1c[nH]c2ncc(-c3ccc(OCC(O)CO)cc3)cc12 (stereo not shown) [Example 40, N-(3-(5-(4-(2,3-dihydroxypropoxy)phenyl)-1H-pyrrolo [2,3-b]pyridine-3-carbonyl)-2,4-difluorophenyl)-1-phenylmethanesulfonamide] | +++ (PoC < 1) | +++ (Ratio > 100) | 70 to 90 | +++ (Ratio > 100) | +++ (Ratio > 100) |  | 
7 | O=C(c1c(F)ccc(NS(=O)(=O)CCCO)c1F)c1c[nH]c2ncc(-c3ccc(Cl)cc3)cc12 [Example 67, N-(3-(5-(4-chlorophenyl)-1H-pyrrolo[2,3-b]pyridine-3-carbonyl)-2,4-difluorophenyl)-3-hydroxypropane-1-sulfonamide] | ◯ (30 ≤ PoC) | ◯ (3 ≥ Ratio) | > 90 | ◯ (3 ≥ Ratio) | ◯ (3 ≥ Ratio) |  | 
8 | Cc1ccc(CS(=O)(=O)Nc2ccc(F)c(C(=O)c3c[nH]c4ncc(-c5ccc(Cl)cc5)cc34)c2F)cc1 [Example 38, N-(3-(5-(4-chlorophenyl)-1H-pyrrolo[2,3-b]pyridine-3-carbonyl)-2,4-difluoro-phenyl)-1-(p-tolyl)methanesulfonamide] | + (3 ≤ PoC < 30) | + (10 ≥ ratio > 3) |  | + (10 ≥ ratio > 3) | + (10 ≥ ratio > 3) | 70 to 90 | 
9 | CCCS(=O)(=O)Nc1ccc(F)c(C(=O)c2c[nH]c3ncc(-c4ccccn4)cc23)c1F [Example 47] | ++ (1 ≤ PoC < 3) | + (10 ≥ ratio > 3) |  | ++ (100 ≥ ratio > 10) | ++ (100 ≥ ratio > 10) |  | 1 to 10
10 | Cc1cccc(CS(=O)(=O)Nc2ccc(F)c(C(=O)c3c[nH]c4ncc(-c5ccc(Cl)cc5)cc34)c2F)c1 [Example 37, N-(3-(5-(4-chlorophenyl)-1H-pyrrolo[2,3-b]pyridine-3-carbonyl)-2,4-difluoro-phenyl)-1-(m-tolyl)methanesulfonamide] | + (3 ≤ PoC < 30) | + (10 ≥ ratio > 3) |  | + (10 ≥ ratio > 3) | + (10 ≥ ratio > 3) | 70 to 90 | 
11 | CCCS(=O)(=O)Nc1ccc(F)c(C(=O)c2c[nH]c3ncc(-c4ccccc4F)cc23)c1F [Example 34, N-(2,4-difluoro-3-(5-(2-fluorophenyl)-1H-pyrrolo[2,3-b]pyridine-3-carbonyl)phenyl)propane-1-sulfonamide] | + (3 ≤ PoC < 30) | ++ (100 ≥ ratio > 10) | 70 to 90 | ++ (100 ≥ ratio > 10) | ++ (100 ≥ ratio > 10) |  | 
